≈ marks a conversion by molar mass, not a printed value. Bridge positions count the residues as written; N and C are the ends. Square brackets hold non-standard residues; d marks the D form. Peptide text beside a SMILES is read from it. * marks the point of attachment. X1 = CC[C@H](C)CCCCC(=O)*; Dab = NCC[C@H](N)C(=O)O
Experiments:
Pseudomonas aeruginosa [1] = test: Antibacterial activity against polymyxin-susceptible Pseudomonas aeruginosa ATCC 27853 clinical isolates assessed as reduction in bacterial growth by broth microdilution method; assay type: functional
Pseudomonas aeruginosa [2] = test: Antibacterial activity against Carbapenem-resistant Pseudomonas aeruginosa FADD1-PA022 clinical isolates assessed as reduction in bacterial growth by broth microdilution method; assay type: functional
Pseudomonas aeruginosa [3] = test: Antibacterial activity against Carbapenem-resistant Pseudomonas aeruginosa FADD1-PA001 clinical isolates assessed as reduction in bacterial growth by broth microdilution method; assay type: functional
Pseudomonas aeruginosa [4] = test: Antibacterial activity against polymyxin-susceptible Pseudomonas aeruginosa FADD1-PA038 clinical isolates assessed as reduction in bacterial growth by broth microdilution method; assay type: functional
Pseudomonas aeruginosa [5] = test: Antibacterial activity against polymyxin-susceptible Pseudomonas aeruginosa FADD1-PA025 clinical isolates assessed as reduction in bacterial growth by broth microdilution method; assay type: functional
Acinetobacter baumannii [6] = test: Antibacterial activity against polymyxin-susceptible Acinetobacter baumannii ATCC 19606 clinical isolates assessed as reduction in bacterial growth by broth microdilution method; assay type: functional
Acinetobacter baumannii [7] = test: Antibacterial activity against Carbapenem-resistant Acinetobacter baumannii FADD1-AB034 clinical isolates assessed as reduction in bacterial growth by broth microdilution method; assay type: functional
Acinetobacter baumannii [8] = test: Antibacterial activity against polymyxin-susceptible Acinetobacter baumannii ATCC 17978 clinical isolates assessed as reduction in bacterial growth by broth microdilution method; assay type: functional
Acinetobacter baumannii [9] = test: Antibacterial activity against Carbapenem-resistant Acinetobacter baumannii FADD1-AB030 clinical isolates assessed as reduction in bacterial growth by broth microdilution method; assay type: functional
Klebsiella pneumoniae [10] = test: Antibacterial activity against Carbapenem-resistant Klebsiella pneumoniae FADD1-KP032 clinical isolates assessed as reduction in bacterial growth by broth microdilution method; assay type: functional
Klebsiella pneumoniae [11] = test: Antibacterial activity against Carbapenem-resistant Klebsiella pneumoniae FADD1-KP022 clinical isolates assessed as reduction in bacterial growth by broth microdilution method; assay type: functional
Klebsiella pneumoniae [12] = test: Antibacterial activity against Carbapenem-resistant Klebsiella pneumoniae BM1 clinical isolates assessed as reduction in bacterial growth by broth microdilution method; assay type: functional
Klebsiella pneumoniae [13] = test: Antibacterial activity against polymyxin-susceptible Klebsiella pneumoniae ATCC 700721 clinical isolates assessed as reduction in bacterial growth by broth microdilution method; assay type: functional
Klebsiella pneumoniae [14] = test: Antibacterial activity against Carbapenem-resistant Klebsiella pneumoniae FADD1-KP065 clinical isolates assessed as reduction in bacterial growth by broth microdilution method; assay type: functional
Enterobacter cloacae [15] = test: Antibacterial activity against polymyxin-susceptible Enterobacter cloacae FADD1-EC006 clinical isolates assessed as reduction in bacterial growth by broth microdilution method; assay type: functional
Enterobacter cloacae [16] = test: Antibacterial activity against polymyxin-susceptible Enterobacter cloacae FADD1-EC001 clinical isolates assessed as reduction in bacterial growth by broth microdilution method; assay type: functional
Enterobacter cloacae [17] = test: Antibacterial activity against polymyxin-susceptible Enterobacter cloacae FADD1-EC003 clinical isolates assessed as reduction in bacterial growth by broth microdilution method; assay type: functional
[18] = Acute toxicity in Swiss mouse assessed as maximum tolerated dose administered intravenously measured over 24 hrs; conditions: in vivo, route iv
[19] = Nephrotoxicity in Swiss mouse assessed as histopathological changes in kidney by measuring semiquantitative score at 12 mg/kg, sc administered as free base every 2 hrs for 6 doses and measured at 20 hrs; assay type: toxicity, organism-based; conditions: in vivo

Row | Structure (SMILES) | MIC (Pseudomonas aeruginosa [1]) | MIC (Pseudomonas aeruginosa [2]) | MIC (Pseudomonas aeruginosa [3]) | MIC (Pseudomonas aeruginosa [4]) | MIC (Pseudomonas aeruginosa [5]) | MIC (Acinetobacter baumannii [6]) | MIC (Acinetobacter baumannii [7]) | MIC (Acinetobacter baumannii [8]) | MIC (Acinetobacter baumannii [9]) | MIC (Klebsiella pneumoniae [10]) | MIC (Klebsiella pneumoniae [11]) | MIC (Klebsiella pneumoniae [12]) | MIC (Klebsiella pneumoniae [13]) | MIC (Klebsiella pneumoniae [14]) | MIC (Enterobacter cloacae [15]) | MIC (Enterobacter cloacae [16]) | MIC (Enterobacter cloacae [17]) | MTD at 24 h [18] | Activity [19]
1 | CC[C@H](C)CCCCC(=O)N[C@@H](CCN)C(=O)N[C@H](C(=O)N[C@@H](CCN)C(=O)N[C@H]1CCNC(=O)[C@H](CC(C)C)NC(=O)[C@H](CCN)NC(=O)[C@H](CCN)NC(=O)[C@H](CC(C)C)NC(=O)[C@@H](Cc2ccccc2)NC(=O)[C@H](CCN)NC1=O)[C@@H](C)O (X1-[Dab]T[Dab][Dab][Dab][dF]L[Dab][Dab]L; lactam 4-C) | 2 µg/mL (≈ 1.65 µM) | 1 µg/mL (≈ 0.823 µM) | 1 µg/mL (≈ 0.823 µM) | 2 µg/mL (≈ 1.65 µM) | 2 µg/mL (≈ 1.65 µM) | 16 µg/mL (≈ 13.2 µM) | 8 µg/mL (≈ 6.58 µM) | 2 µg/mL (≈ 1.65 µM) | 1 µg/mL (≈ 0.823 µM) | 4 µg/mL (≈ 3.29 µM) | 0.25 µg/mL (≈ 0.206 µM) | 2 µg/mL (≈ 1.65 µM) | 4 µg/mL (≈ 3.29 µM) | 0.5 µg/mL (≈ 0.411 µM) | 4 µg/mL (≈ 3.29 µM) | 2 µg/mL (≈ 1.65 µM) | 4 µg/mL (≈ 3.29 µM) | 6.1 mg/kg | –
2 | CCC[C@@H]1NC(=O)[C@H](CCN)NC(=O)[C@H](CCN)NC(=O)[C@H](CC(C)C)NC(=O)[C@@H](Cc2ccccc2)NC(=O)[C@H](CCN)NC(=O)[C@@H](NC(=O)[C@H](CCN)NC(=O)[C@@H](NC(=O)[C@H](CCN)NC(=O)CCCC[C@@H](C)CC)[C@@H](C)O)CCNC1=O | 1 µg/mL (≈ 0.832 µM) | 1 µg/mL (≈ 0.832 µM) | 1 µg/mL (≈ 0.832 µM) | 2 µg/mL (≈ 1.66 µM) | 2 µg/mL (≈ 1.66 µM) | 4 µg/mL (≈ 3.33 µM) | 4 µg/mL (≈ 3.33 µM) | 4 µg/mL (≈ 3.33 µM) | 0.5 µg/mL (≈ 0.416 µM) | 1 µg/mL (≈ 0.832 µM) | 0.5 µg/mL (≈ 0.416 µM) | 1 µg/mL (≈ 0.832 µM) | 2 µg/mL (≈ 1.66 µM) | 0.5 µg/mL (≈ 0.416 µM) | 2 µg/mL (≈ 1.66 µM) | 2 µg/mL (≈ 1.66 µM) | 2 µg/mL (≈ 1.66 µM) | 4.1 mg/kg | 0
3 | CC[C@H](C)CCCCC(=O)N[C@@H](CCN)C(=O)N[C@H](C(=O)N[C@@H](CCN)C(=O)N[C@H]1CCNC(=O)[C@H]([C@@H](C)O)NC(=O)[C@H](CCN)NC(=O)[C@H](CCN)NC(=O)[C@H](CC(C)C)NC(=O)[C@@H](Cc2ccccc2)NC(=O)[C@H](CCN)NC1=O)[C@@H](C)O | 1 µg/mL (≈ 0.831 µM) | 2 µg/mL (≈ 1.66 µM) | 2 µg/mL (≈ 1.66 µM) | 4 µg/mL (≈ 3.32 µM) | 4 µg/mL (≈ 3.32 µM) | 1 µg/mL (≈ 0.831 µM) | 1 µg/mL (≈ 0.831 µM) | 1 µg/mL (≈ 0.831 µM) | 1 µg/mL (≈ 0.831 µM) | 0.25 µg/mL (≈ 0.208 µM) | 0.25 µg/mL (≈ 0.208 µM) | 0.5 µg/mL (≈ 0.415 µM) | 1 µg/mL (≈ 0.831 µM) | 0.5 µg/mL (≈ 0.415 µM) | 0.5 µg/mL (≈ 0.415 µM) | 0.5 µg/mL (≈ 0.415 µM) | 0.5 µg/mL (≈ 0.415 µM) | 4 mg/kg | –
4 | CC[C@H](C)CCCCC(=O)N[C@@H](CCN)C(=O)N[C@H](C(=O)N[C@@H](CCN)C(=O)N[C@H]1CCNC(=O)[C@H]([C@H](C)O)NC(=O)[C@H](CCN)NC(=O)[C@H](CCN)NC(=O)[C@H](CC(C)C)NC(=O)[C@@H](Cc2ccccc2)NC(=O)[C@H](CCN)NC1=O)[C@@H](C)O | 1 µg/mL (≈ 0.831 µM) | 1 µg/mL (≈ 0.831 µM) | 1 µg/mL (≈ 0.831 µM) | 4 µg/mL (≈ 3.32 µM) | 2 µg/mL (≈ 1.66 µM) | 8 µg/mL (≈ 6.65 µM) | 2 µg/mL (≈ 1.66 µM) | 4 µg/mL (≈ 3.32 µM) | 2 µg/mL (≈ 1.66 µM) | 2 µg/mL (≈ 1.66 µM) | 0.25 µg/mL (≈ 0.208 µM) | 1 µg/mL (≈ 0.831 µM) | 1 µg/mL (≈ 0.831 µM) | 0.5 µg/mL (≈ 0.415 µM) | 8 µg/mL (≈ 6.65 µM) | 2 µg/mL (≈ 1.66 µM) | 1 µg/mL (≈ 0.831 µM) | 4.1 mg/kg | 0
5 | CC[C@H](C)CCCCC(=O)N[C@@H](CCN)C(=O)N[C@H](C(=O)N[C@@H](CCN)C(=O)N[C@H]1CCNC(=O)[C@H](CO)NC(=O)[C@H](CCN)NC(=O)[C@H](CCN)NC(=O)[C@H](CC(C)C)NC(=O)[C@@H](Cc2ccccc2)NC(=O)[C@H](CCN)NC1=O)[C@@H](C)O | 0.5 µg/mL (≈ 0.42 µM) | 0.5 µg/mL (≈ 0.42 µM) | 0.5 µg/mL (≈ 0.42 µM) | 1 µg/mL (≈ 0.841 µM) | 2 µg/mL (≈ 1.68 µM) | 2 µg/mL (≈ 1.68 µM) | 1 µg/mL (≈ 0.841 µM) | 1 µg/mL (≈ 0.841 µM) | 1 µg/mL (≈ 0.841 µM) | 0.25 µg/mL (≈ 0.21 µM) | < 0.125 µg/mL | 0.25 µg/mL (≈ 0.21 µM) | 0.5 µg/mL (≈ 0.42 µM) | 0.25 µg/mL (≈ 0.21 µM) | 0.5 µg/mL (≈ 0.42 µM) | 0.5 µg/mL (≈ 0.42 µM) | 0.25 µg/mL (≈ 0.21 µM) | 4.1 mg/kg | –
6 | CC[C@H](C)CCCCC(=O)N[C@@H](CCN)C(=O)N[C@H](C(=O)N[C@@H](CCN)C(=O)N[C@H]1CCNC(=O)[C@H](C)NC(=O)[C@H](CCN)NC(=O)[C@H](CCN)NC(=O)[C@H](CC(C)C)NC(=O)[C@@H](Cc2ccccc2)NC(=O)[C@H](CCN)NC1=O)[C@@H](C)O | 1 µg/mL (≈ 0.852 µM) | 1 µg/mL (≈ 0.852 µM) | 1 µg/mL (≈ 0.852 µM) | 8 µg/mL (≈ 6.82 µM) | 1 µg/mL (≈ 0.852 µM) | 1 µg/mL (≈ 0.852 µM) | 1 µg/mL (≈ 0.852 µM) | 1 µg/mL (≈ 0.852 µM) | 1 µg/mL (≈ 0.852 µM) | 1 µg/mL (≈ 0.852 µM) | 0.5 µg/mL (≈ 0.426 µM) | 2 µg/mL (≈ 1.7 µM) | 4 µg/mL (≈ 3.41 µM) | 0.5 µg/mL (≈ 0.426 µM) | 4 µg/mL (≈ 3.41 µM) | 2 µg/mL (≈ 1.7 µM) | 1 µg/mL (≈ 0.852 µM) | 2.7 mg/kg | 0
7 | CC[C@H](C)CCCCC(=O)N[C@@H](CCN)C(=O)N[C@H](C(=O)N[C@@H](CCN)C(=O)N[C@H]1CCNC(=O)[C@H](CC)NC(=O)[C@H](CCN)NC(=O)[C@H](CCN)NC(=O)[C@H](CC(C)C)NC(=O)[C@@H](Cc2ccccc2)NC(=O)[C@H](CCN)NC1=O)[C@@H](C)O | 1 µg/mL (≈ 0.842 µM) | 1 µg/mL (≈ 0.842 µM) | 1 µg/mL (≈ 0.842 µM) | 2 µg/mL (≈ 1.68 µM) | 1 µg/mL (≈ 0.842 µM) | 2 µg/mL (≈ 1.68 µM) | 2 µg/mL (≈ 1.68 µM) | 2 µg/mL (≈ 1.68 µM) | 1 µg/mL (≈ 0.842 µM) | 1 µg/mL (≈ 0.842 µM) | 0.25 µg/mL (≈ 0.211 µM) | 0.5 µg/mL (≈ 0.421 µM) | 4 µg/mL (≈ 3.37 µM) | 0.5 µg/mL (≈ 0.421 µM) | 4 µg/mL (≈ 3.37 µM) | 2 µg/mL (≈ 1.68 µM) | 1 µg/mL (≈ 0.842 µM) | 4.1 mg/kg | 0

Reference: ChEMBL document CHEMBL5316337, “Critical Role of Position 10 Residue in the Polymyxin Antimicrobial Activity” (J Med Chem, 2023)
